In brackets after ≈: the same amount, converted by molar mass. Activity calls are given as the source filed them. The calls are words filed in the database; no cut-off is given here.
What was measured:
[1] = test system: Mycobacterium tuberculosis; assay type: functional; conditions: H37Rv, 168 h, time 7 day
[2] = Metabolic stability in mouse liver microsomes assessed as parent compound remaining at 1 uM in presence of NADPH by LC-MS/MS analysis; assay type: ADME, Microsome
CHO = assay: Cytotoxicity against CHO cells assessed as reduction in cell viability by MTT assay; assay type: cell-based; conditions: Cricetulus griseus
[3] = test system: Mycobacterium tuberculosis; assay type: functional; conditions: H37Rv, 168 h, time 7 day; remark: listed apart in the source
[4] = Metabolic stability in human liver microsomes assessed as parent compound remaining at 1 uM in presence of NADPH by LC-MS/MS analysis; assay type: ADME, Microsome
[5] = Aqueous solubility of compound at pH 7.4; assay type: physicochemical; conditions: buffer
[6] = test system: Mycobacterium tuberculosis; assay type: functional; conditions: H37Rv, 168 h, time 7 day; remark: listed apart in the source
[7] = test system: Mycobacterium tuberculosis; assay: Antimycobacterial activity against mmpL3 gene silenced Mycobacterium tuberculosis H37Rv assessed as inhibition of bacterial growth grown under middlebrook 7H9 medium incubated for 7 days by alamar blue broth microdilution method; assay type: functional, organism-based; conditions: time 7.0 day
[8] = test system: Mycobacterium tuberculosis; assay: Antimycobacterial activity against wild-type Mycobacterium tuberculosis H37Rv assessed as inhibition of bacterial growth grown under middlebrook 7H9 medium incubated for 7 days by alamar blue broth microdilution method; assay type: functional; conditions: 168 h, time 7 day
[9] = test system: Mycobacterium tuberculosis; assay type: functional; conditions: H37Rv, 168 h, time 7 day; remark: listed apart in the source
[10] = target: Voltage-gated inwardly rectifying potassium channel KCNH2 (Homo sapiens, UniProt Q12809); assay: Inhibition of human ERG
Voltage-gated inwardly rectifying potassium channel KCNH2, sequence (Q12809 whole entry): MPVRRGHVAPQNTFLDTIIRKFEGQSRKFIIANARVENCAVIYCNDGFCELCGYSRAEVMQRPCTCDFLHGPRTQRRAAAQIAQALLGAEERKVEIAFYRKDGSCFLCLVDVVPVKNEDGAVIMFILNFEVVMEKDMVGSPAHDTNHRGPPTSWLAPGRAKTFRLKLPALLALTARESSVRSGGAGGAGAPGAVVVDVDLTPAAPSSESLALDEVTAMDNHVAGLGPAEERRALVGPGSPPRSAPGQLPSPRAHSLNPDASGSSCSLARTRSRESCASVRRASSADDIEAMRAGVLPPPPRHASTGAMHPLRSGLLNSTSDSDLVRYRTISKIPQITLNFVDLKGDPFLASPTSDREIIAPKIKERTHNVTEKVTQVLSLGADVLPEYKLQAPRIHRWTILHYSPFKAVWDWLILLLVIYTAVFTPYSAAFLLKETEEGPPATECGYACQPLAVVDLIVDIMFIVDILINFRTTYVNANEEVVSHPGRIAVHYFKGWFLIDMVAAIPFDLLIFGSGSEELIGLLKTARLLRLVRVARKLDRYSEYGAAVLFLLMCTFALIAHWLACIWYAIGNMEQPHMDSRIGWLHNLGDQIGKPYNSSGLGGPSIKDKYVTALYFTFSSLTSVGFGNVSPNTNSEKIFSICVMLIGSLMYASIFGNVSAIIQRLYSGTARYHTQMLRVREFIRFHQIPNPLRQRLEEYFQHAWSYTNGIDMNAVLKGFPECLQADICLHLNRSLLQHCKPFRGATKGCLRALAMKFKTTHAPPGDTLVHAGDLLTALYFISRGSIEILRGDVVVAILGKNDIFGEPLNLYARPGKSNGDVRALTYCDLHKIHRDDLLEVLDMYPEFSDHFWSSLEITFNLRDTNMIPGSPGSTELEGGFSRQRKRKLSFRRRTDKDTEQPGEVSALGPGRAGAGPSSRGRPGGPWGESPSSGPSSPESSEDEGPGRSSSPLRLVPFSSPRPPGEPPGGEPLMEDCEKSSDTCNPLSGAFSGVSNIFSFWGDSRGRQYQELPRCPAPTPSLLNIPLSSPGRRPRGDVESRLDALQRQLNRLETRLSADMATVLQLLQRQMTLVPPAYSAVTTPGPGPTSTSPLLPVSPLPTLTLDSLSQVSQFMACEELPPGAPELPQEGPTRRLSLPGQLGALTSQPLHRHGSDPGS

HepG2 [11] = assay: Antiproliferative activity against human HepG2 cells assessed as reduction in cell viability grown under galactose medium by MTT assay; assay type: functional, cell-based
[12] = test system: Mycobacterium tuberculosis; assay type: functional; conditions: H37Rv, 168 h, time 7 day; remark: listed apart in the source
[13] = Solubility of compound at 3 uM; assay type: physicochemical
[14] = test system: Mycobacterium tuberculosis; assay type: functional; conditions: H37Rv, 168 h, time 7 day; remark: listed apart in the source
[15] = Lipophilicity, log D of the compound in n-octanol and phosphate buffer at pH 7.4 measured after 3 hrs by HPLC-DAD analysis; assay type: physicochemical
HepG2 [16] = assay: Antiproliferative activity against human HepG2 cells assessed as reduction in cell viability grown under glucose medium by MTT assay; assay type: functional, cell-based
[17] = Metabolic stability in rat liver microsomes assessed as parent compound remaining at 1 uM in presence of NADPH by LC-MS/MS analysis; assay type: ADME, Microsome
[18] = test system: Mycobacterium tuberculosis; assay type: functional; conditions: H37Rv, time 6.0 hrs
[19] = test system: Mycobacterium tuberculosis; assay type: functional; conditions: H37Rv, time 6.0 hrs; remark: listed apart in the source
[20] = test system: Mycobacterium tuberculosis; assay type: functional; conditions: H37Rv, time 6.0 hrs; remark: listed apart in the source
[21] = Metal chelating activity assessed as Fe2+-compound complex formation by measuring shift in absorbance at 10 uM at 285 nm measured after 1 hr in presence of ferrous sulphate by UV-Visible spectrophotometric analysis
[22] = test system: Mycobacterium tuberculosis; assay: Upregulation of rv1342 in Mycobacterium tuberculosis H37Rv assessed as fold change incubated for 6 hrs by microarray based assay; assay type: functional
[23] = test system: Mycobacterium tuberculosis; assay type: functional; conditions: H37Rv, time 6.0 hrs; remark: listed apart in the source
[24] = test system: Mycobacterium tuberculosis; assay: Upregulation of rv1345 in Mycobacterium tuberculosis H37Rv assessed as fold change incubated for 6 hrs by microarray based assay; assay type: functional
[25] = test system: Mycobacterium tuberculosis; assay: Upregulation of rv3270 in Mycobacterium tuberculosis H37Rv incubated for 6 hrs by microarray based assay; assay type: functional
[26] = test system: Mycobacterium tuberculosis; assay: Upregulation of rv1346 in Mycobacterium tuberculosis H37Rv assessed as fold change incubated for 6 hrs by microarray based assay; assay type: functional
[27] = test system: Mycobacterium tuberculosis; assay: Upregulation of rv2385 in Mycobacterium tuberculosis H37Rv incubated for 6 hrs by microarray based assay; assay type: functional
[28] = Metal chelating activity assessed as Fe2+-compound complex formation by measuring decrease in band intensity at 10 uM measured after 1 hr in presence of ferrous sulphate by UV-Visible spectrophotometric analysis
[29] = test system: Mycobacterium tuberculosis; assay: Upregulation of rv1347 in Mycobacterium tuberculosis H37Rv assessed as fold change incubated for 6 hrs by microarray based assay; assay type: functional
[30] = test system: Mycobacterium tuberculosis; assay: Upregulation of rv1343 in Mycobacterium tuberculosis H37Rv assessed as fold change incubated for 6 hrs by microarray based assay; assay type: functional
[31] = Kinetic solubility of compound at 200 uM at pH 7.4 measured after 20 hrs by HPLC-DAD analysis; assay type: physicochemical; conditions: buffer, pH 7.4, 20 h
[32] = test system: Mycobacterium tuberculosis; assay type: functional; conditions: H37Rv, time 6.0 hrs; remark: listed apart in the source
[33] = test system: Mycobacterium tuberculosis; assay type: functional; conditions: H37Rv, 168 h, time 7 day; remark: listed apart in the source
[34] = test system: Mycobacterium tuberculosis; assay type: functional; conditions: H37Rv, time 6.0 hrs; remark: listed apart in the source
[35] = test system: Mycobacterium tuberculosis; assay type: functional, H37Rv; conditions: time 7 day
[36] = Metabolic stability in rat liver microsomes assessed as parent compound remaining after 30 mins; assay type: ADME, Microsome; conditions: 0.5 h
[37] = test system: Mycobacterium tuberculosis; assay: Upregulation of rv1348 in Mycobacterium tuberculosis H37Rv assessed as fold change incubated for 6 hrs by microarray based assay; assay type: functional
[38] = test system: Mycobacterium tuberculosis; assay type: functional; conditions: H37Rv, time 6.0 hrs; remark: listed apart in the source
[39] = test system: Mycobacterium tuberculosis; assay: Upregulation of rv2384 in Mycobacterium tuberculosis H37Rv incubated for 6 hrs by microarray based assay; assay type: functional
[40] = test system: Mycobacterium tuberculosis; assay type: functional; conditions: H37Rv, time 6.0 hrs; remark: listed apart in the source
[41] = test system: Mycobacterium tuberculosis; assay: Upregulation of rv3269 in Mycobacterium tuberculosis H37Rv incubated for 6 hrs by microarray based assay; assay type: functional
[42] = test system: Mycobacterium tuberculosis; assay: Upregulation of rv1344 in Mycobacterium tuberculosis H37Rv assessed as fold change incubated for 6 hrs by microarray based assay; assay type: functional
[43] = Metabolic stability in mouse liver microsomes assessed as parent compound remaining after 30 mins; assay type: ADME, Microsome; conditions: 0.5 h
[44] = Metabolic stability in human liver microsomes assessed as parent compound remaining after 30 mins; assay type: ADME, Microsome; conditions: 0.5 h
[45] = test system: Mycobacterium tuberculosis; assay: Upregulation of rv1349 in Mycobacterium tuberculosis H37Rv assessed as fold change incubated for 6 hrs by microarray based assay; assay type: functional
[46] = Tmax in C57/BL6 mouse blood at 20 mg/kg, po measured upto 24 hrs by LC-MS/MS analysis; assay type: ADME, organism-based; conditions: mouse, in vivo, 20 mg/kg, 24 h
[47] = Apparent half life in C57/BL6 mouse blood at 2 mg/kg, iv administered as bolus dose measured upto 24 hrs by LC-MS/MS analysis; assay type: ADME, organism-based; conditions: mouse, in vivo, 2 mg/kg, 24 h
[48] = Cmax in C57/BL6 mouse blood at 20 mg/kg, po measured upto 24 hrs by LC-MS/MS analysis; assay type: ADME, organism-based; parameters: route oral, dose 20 mg/kg, time <=24; conditions: mouse, in vivo, 24 h
[49] = Volume of distribution during elimination phase in C57/BL6 mouse blood at 2 mg/kg, iv administered as bolus dose measured upto 24 hrs by LC-MS/MS analysis; assay type: ADME, organism-based; conditions: mouse, in vivo, 2 mg/kg, 24 h
[50] = Apparent half life in C57/BL6 mouse blood at 20 mg/kg, po measured upto 24 hrs by LC-MS/MS analysis; assay type: ADME, organism-based; conditions: mouse, in vivo, 20 mg/kg, 24 h
[51] = Cmax in C57/BL6 mouse blood at 2 mg/kg, iv administered as bolus dose measured upto 24 hrs by LC-MS/MS analysis; assay type: ADME, organism-based; parameters: route intravenous, dose 2 mg/kg, time <=24; conditions: mouse, in vivo, 24 h
[52] = Intrinsic clearance in C57/BL6 mouse blood at 2 mg/kg, iv administered as bolus dose measured upto 24 hrs by LC-MS/MS analysis; assay type: ADME, organism-based; conditions: in vivo
[53] = AUC (0 to infinity) in C57/BL6 mouse blood at 2 mg/kg, iv administered as bolus dose measured upto 24 hrs by LC-MS/MS analysis; assay type: ADME, organism-based; parameters: route intravenous, dose 2 mg/kg, time <=24; conditions: mouse, in vivo, 24 h
[54] = Protein binding in human plasma assessed as unbound fraction at 5 uM incubated for 1 hr at 37 degreeC and measured after 4 hrs by ultracentrifugation based LC-MS/MS analysis; assay type: ADME, cell-free; conditions: 5 h
[55] = Oral bioavailability in C57/BL6 mouse blood at 20 mg/kg measured upto 24 hrs by LC-MS/MS analysis; assay type: ADME, organism-based; conditions: mouse, in vivo, 20 mg/kg, 24 h
[56] = test system: Mycobacterium tuberculosis; assay: Bactericidal activity against Mycobacterium tuberculosis H37Rv assessed as reduction in CFU grown under middlebrook 7H9/OADC-Glycerol-Tween80 medium at 1 to 2 times MIC incubated for 7 days; assay type: functional; conditions: time 7 day

SMILES: Cc1cc(C)n(-c2nc(O)cc(-c3ccccc3)n2)n1
- MIC [1]: 1.5 µM (≈ 0.399 µg/mL)
- Stabilty [2]: 22%
- IC50 (CHO): 8 µM
- MIC [3]: 0.6 µM (≈ 0.16 µg/mL)
- Stabilty [4]: 98%
- solubility [5]: 10 µM (≈ 2.66 µg/mL)
- MIC [6]: 0.02 µM (≈ 0.00533 µg/mL)
- Activity [7]: Active
- MIC [8]: 1.7 µM (≈ 0.453 µg/mL)
- MIC [9]: 0.3 µM (≈ 0.0799 µg/mL)
- IC50 [10]: > 30 µM
- IC50 (HepG2 [11]): 4 µM
- MIC [12]: 1.5 µM (≈ 0.399 µg/mL)
- solubility at 3 µM [13]: 180 µM (≈ 47.9 µg/mL)
- MIC [14]: 0.4 µM (≈ 0.107 µg/mL)
- logD at 3 h [15]: 2.5
- IC50 (HepG2 [16]): 4 µM
- Stabilty [17]: 69%

SMILES: Cc1cc(Nc2ccccn2)n(-c2nc(C(F)(F)F)cc(=O)[nH]2)n1
- Activity [18]: Active
- Activity [19]: Active
- IC50 (CHO): 23 µM
- Activity [20]: Active
- deltaA [21]: 300 nm
- fold change (FC) [22]: 2
- Activity [23]: Active
- fold change (FC) [24]: 2
- Activity [25]: Active
- fold change (FC) [26]: 2
- Activity [27]: Active
- Activity [28]: Active
- fold change (FC) [29]: 2
- fold change (FC) [30]: 2
- Kinetic_solubility [31]: 25 µM
- Activity [32]: Active
- MIC [33]: 0.12 µM (≈ 0.0404 µg/mL)
- Activity [34]: Active
- fold change (FC) [35]: >=32
- Stabilty [36]: 96%
- fold change (FC) [37]: 2
- solubility [5]: 25 µM (≈ 8.41 µg/mL)
- Activity [38]: Active
- Activity [39]: Active
- Activity [40]: Active
- Activity [41]: Active
- fold change (FC) [42]: 2
- Stabilty [43]: > 99%
- MIC [12]: 0.9 µM (≈ 0.303 µg/mL)
- Stabilty [44]: > 99%
- fold change (FC) [45]: 2

SMILES: Cc1cc(C)n(-c2nc(C(F)(F)F)cc(=O)[nH]2)n1
- IC50 (CHO): 150 µM
- Tmax [46]: 0.5 h
- t1/2(app) [47]: 3.1 h
- Cmax [48]: 65.6 µM
- Kinetic_solubility [31]: 200 µM
- Stabilty [36]: 92%
- Vd [49]: 0.7 L/kg
- t1/2(app) [50]: 4 h
- Cmax [51]: 29.1 µM
- CL [52]: 476 mL/min/kg
- solubility [5]: 200 µM (≈ 51.6 µg/mL)
- AUC [53]: 2928 µM·min
- Activity [7]: Active
- MIC [8]: 15 µM (≈ 3.87 µg/mL)
- IC50 [10]: > 30 µM
- Fu [54]: 0.006
- Stabilty [43]: > 99%
- MIC [12]: 12 µM (≈ 3.1 µg/mL)
- F [55]: 41%
- Stabilty [44]: > 99%
- Activity [56]: 2 log10CFU

Source: ChEMBL document CHEMBL4706648, “Antitubercular 2-Pyrazolylpyrimidinones: Structure-Activity Relationship and Mode-of-Action Studies” (J Med Chem, 2021)
